Data: patent US20080171706A1, “Anti-Adhesive Compounds to Prevent and Treat Bacterial Infections” (priority 2004, published 2008)

How the values were obtained:
[1] = molecular target: T1, FimHtrCl#4 (Escherichia coli, UniProt P08191, G94E/N91S/S99N/V48A); assay: biochemical; assay type: binding, E. coli UPEC (Cl#4) strain
T1 construct: coding for the lectin domain of FimH (residues 1-158) with a C-terminal 6-histidine tag; made in house; host or cells: E. coli HB101 (lacking the fim operon), periplasmic extract, plasmid pMAS146
T1 sequence (P08191 22-179 V48A/N91S/G94E/S99N): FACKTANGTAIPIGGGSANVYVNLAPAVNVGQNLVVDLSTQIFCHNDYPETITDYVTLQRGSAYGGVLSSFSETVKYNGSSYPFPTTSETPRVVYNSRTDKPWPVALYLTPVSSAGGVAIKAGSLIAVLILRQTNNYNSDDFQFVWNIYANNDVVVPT
Description: (§1) To investigate if these variations reflect differences in sugar binding at the molecular level, the dissociation constants of a series of mannosides for the FimH lectin domain from a fecal (F18) and from a UPEC (Cl#4) strain were determined. […] For comparison, binding to FimHtrJ96 was also investigated. Both F18 and Cl#4 FimH lectin domains were cloned, expressed, and purified in the same way as FimHtrJ96 (Schembri et al., 2000). These two lectin domains differ from the lectin domain of FimHJ96 by substitutions Val27Ala, Asn70Ser and Ser78Asn. In addition, FimHCl#4 differs from the other two variants by a Gly73Glu substitution. […] Five different tri-mannosides corresponding to high-mannose substructures were synthesized, and their binding to FimHtrJ96, FimHtrF18 and FimHtrCl#4 measured using our [^3H]-mannose displacement assay (Table 3). Alpha-D-mannose binding was first directly measured for each of the FimH variants.
(§2) [^3H]alpha-D-mannose was obtained from Amersham. […] Syntheses of tri-mannosides was as reported earlier by Oscarson and co-workers (1993). Weighed amounts of tri-mannosides were dissolved in double distilled water to give stock solutions of 0.87 M man-(1,2)-man-(1,2)-man, 0.25 M man-(1,2)-man-(1,3)-man, 0.27 M man-(1,2)-man-(1,6)-man, 0.30 M man-(1,3)-man-(1,6)-man, 0.13 M man-(1,6)-man-(1,6)-man. Similarly, alkyl mannosides were dissolved in double distilled water to give stock solutions of 100 mM methyl mannoside, 59.8 mM ethyl mannoside, 45.9 mM propyl mannoside, 51.9 mM butyl mannoside, 17.3 mM pentyl mannoside, 20.8 mM hexyl mannoside, 15.3 mM heptyl mannoside, 15.2 mM octyl mannoside. pNPalphaMan and MeUmbalphaMan (6 mg each) were dissolved in 20 μl DMSO and diluted to 20 mM using double distilled water. Binding experiments were performed using six different concentrations of [^3H]-alpha-D-mannose (final concentrations 43.5 μM, 29.0 μM, 19.3 μM, 12.9 μM, 8.6 μM, 5.7 μM). FimHtrJ96 obtained by growing bacteria in minimal medium was used in all binding experiments. 180 μl protein at a concentration of about 500 nM was mixed with 20 μl of the radioactive ligand, and incubated at 37° C. for 20 min. To separate free ligand from bound, the mixture was rapidly filtrated through a Protran BA 85 Cellulose-nitrate filter (Schleicher & Schuell, Dassel, Germany), and washed once with 1 ml of ice-cold 1× PBS (phosphate buffered saline). Filter-bound radioactivity was measured by scintillation spectrometry within 24 hours. The displacement experiments were performed using six different concentrations (final concentrations in the range 0.0˜43.5 μM) of the inhibitor, in the presence of 43.5 μM [^3H]-alpha-D-mannose. 20 μl radioactive ligand, 20 μl inhibitor at decreasing concentrations, and 160 μl protein (500 nM) were mixed, and the experiments performed as above. All experiments were performed in duplicates. For determination of KD for α-D-mannose, a hyperbolic curve (y=P1x/(P2+x), where P2=KD) was fitted to the data. For the displacement experiments, the curve y=P1/(P2+x), where P2 is the concentration of the inhibitor displacing 50% of the labelled ligand, [I]0.5 was used instead. To calculate the inhibitor dissociation constant (KI) the Cheng & Prusoff equation (KI=[I]0.5/([L]/KL+1); KL is the constant of dissociation for the ligand) (Cheng and Prusoff, 1973), was used when both the concentration of the radioactive ligand (L) and the displacing agent (I) are in excess over the protein (LT>>PT;IT>>PT, T indicates total concentration). […] A plot of IT/((1−Y)*(LT/KL)−Y) against 1/Y gives a straight line with a slope of KI.

[2] = molecular target: T2, FimHtrF18 (Escherichia coli, UniProt P08191, N91S/S99N/V48A); assay: biochemical; assay type: binding, E. coli fecal (F18) strain
T2 construct: coding for the lectin domain of FimH (residues 1-158) with a C-terminal 6-histidine tag; made in house; host or cells: E. coli HB101 (lacking the fim operon), periplasmic extract, plasmid pPKL316
T2 sequence (P08191 22-179 V48A/N91S/S99N): as the sequence (P08191 22-179 V48A/N91S/G94E/S99N) above, with E73G counted along it
Description: as §1, §2

[3] = molecular target: T3, FimC:FimH complex (Escherichia coli, UniProt P08191); assay: Binding of alpha-D-mannose to full length FimH in FimC:FimH complex; design: species or system E. coli
T3 construct: lectin domain (residues 1-158) is joined to a carboxy-terminal pilin domain (residues 159-279)
T3 sequence (P08191 22-300): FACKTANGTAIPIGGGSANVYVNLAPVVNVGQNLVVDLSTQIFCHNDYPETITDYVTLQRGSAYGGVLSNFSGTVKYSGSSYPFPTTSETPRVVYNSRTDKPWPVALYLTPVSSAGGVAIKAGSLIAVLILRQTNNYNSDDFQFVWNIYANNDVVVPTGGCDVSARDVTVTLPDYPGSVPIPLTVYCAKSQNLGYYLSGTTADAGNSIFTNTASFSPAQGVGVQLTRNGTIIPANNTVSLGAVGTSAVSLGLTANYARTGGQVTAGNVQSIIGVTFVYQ
T3 sequence (P31697 37-241, further chain): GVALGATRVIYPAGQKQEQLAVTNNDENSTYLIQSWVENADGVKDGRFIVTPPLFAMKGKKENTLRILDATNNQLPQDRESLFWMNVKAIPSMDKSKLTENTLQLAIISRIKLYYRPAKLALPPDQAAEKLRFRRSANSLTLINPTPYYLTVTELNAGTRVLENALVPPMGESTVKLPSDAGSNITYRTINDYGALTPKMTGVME
Description: To eliminate the possibility of different binding strength for full length FimH and FimHtrJ96, the binding of alpha-D-mannose to FimC:FimH complex was also measured. […] The inhibition of [^3H]-mannose binding was used in a displacement assay to determine the dissociation constant for a synthetic butyl mannoside by measuring the amount of [^3H]-mannose bound to the protein in the presence of increasing amounts of the inhibitor (FIG. 1B). […] To investigate the effect of sequential addition of methyl groups to the O1 oxygen of D-mannose, a series of alkyl mannosides were synthesized and the dissociation constants determined using the [^3H]-mannose displacement assay and by surface plasmon resonance (Table 1).

## OC[C@H]1O[C@H](O)[C@@H](O)[C@@H](O)[C@@H]1O [Mannose, α-D-mannose]
[1]; KD CI#4, Table 3, [3H]-mannose displacement assay (mannose measured directly)
  Kd: 10.7 µM
[1]; KD, mannose binding measured directly, FimHtrCl#4
  Kd: 11 µM
[1]; Table 3, calculated from KD
  ΔG° CI#4: -7.0 kcal/mol
[2]; KD F18, Table 3, [3H]-mannose displacement assay (mannose measured directly)
  Kd: 9.8 µM
[2]; KD, mannose binding measured directly, FimHtrF18
  Kd: 10 µM
[2]; Table 3, calculated from KD
  ΔG° F18: -7.1 kcal/mol
[3]
  Kd: 2.3 µM
